Data taken from US20260274829A1, “NEW E3 UBIQUITIN LIGASE LIGAND, PROTEIN DEGRADATION AGENT AND USE THEREOF” (GLUETACS THERAPEUTICS (SHANGHAI) CO., LTD., priority 2023, published 2026).

Assays:
Format in all cases: cell-based
WEE1 = target: T1, WEE1 (Homo sapiens, UniProt P30291+Q96SW2); test: Western blot degradation of WEE1 in hPBMC
T1 construct: endogenous in cells; host or cells: hPBMC
Experimental: (§1) Conventional Western blot assay was performed to evaluate the effects of the compounds of the present disclosure on the expression of target proteins in cells.
(§2) • (1) Cell Seeding and Protein Harvesting: The selected cells were processed according to the cell seeding procedure and protein harvesting procedure in Table III-2.
(§3) • (2) To the collected supernatant, 5×SDS sample loading buffer was added, followed by denaturation at 95° C. for 5 minutes. The denatured samples were then separated by SDS-PAGE electrophoresis on a polyacrylamide gel. Proteins were transferred to a nitrocellulose membrane ([…] NC membrane), blocked with blocking buffer at room temperature for 1 hour, and subjected to antibody incubation and development procedures according to the antibody manufacturer's instructions (Cell Signaling Technology).
(§4) Half-Maximal Degradation Concentration value (the drug concentration required for degrading proteins by 50%, abbreviated as DC50) reads method: comparing the grayscale values of Western blot bands from drug-treated samples with those from blank DMSO-treated controls, and identifying the drug concentration range at which the grayscale value is half that of the DMSO-treated control bands.
(§5) DC50 values can be calculated using ImageJ software to measure grayscale values of Western blot bands from drug-treated samples. The concentration-response curve is fitted to estimate the drug concentration corresponding to half the grayscale value.
(§6) Target protein remaining (0%) refers to the percentage of target protein remaining in hPBMC cells after treatment with protein degrader compounds.
(§7) Calculation method for target protein remaining (0%): Use ImageJ software to measure grayscale values of Western blot bands from drug (protein degrader)-treated samples. The grayscale value of drug-treated bands is divided by that of internal control protein bands, and the resulting quotient is normalized to obtain the relative percentage of remaining target protein after protein degrader treatment.

IKZF1 = target: T2, IKZF1 (Homo sapiens, UniProt Q13422+Q96SW2); test: Western blot degradation of IKZF1 in hPBMC
T2 construct: endogenous in cells; host or cells: hPBMC
Experimental: as §1, §2, §3, §4, §5, §6, §7

IKZF2 = target: T3, IKZF2 (Homo sapiens, UniProt Q96SW2+Q9UKS7); test: Western blot degradation of IKZF2 in hPBMC
T3 construct: endogenous in cells; host or cells: hPBMC
Experimental: as §1, §2, §3, §4, §5, §6, §7

IKZF3 = target: T4, IKZF3 (Homo sapiens, UniProt Q96SW2+Q9UKT9); test: Western blot degradation of IKZF3 in hPBMC
T4 construct: endogenous in cells; host or cells: hPBMC
Experimental: as §1, §2, §3, §4, §5, §6, §7

CK1a = target: T5, CK1a (Homo sapiens, UniProt P48729+Q96SW2); test: Western blot degradation of CK1a in hPBMC
T5 construct: endogenous in cells; host or cells: hPBMC
Experimental: as §1, §2, §3, §4, §5, §6, §7

GSPT1 = target: T6, GSPT1 (Homo sapiens, UniProt P15170+Q96SW2); test: Western blot degradation of GSPT1 in hPBMC
T6 construct: endogenous in cells; host or cells: hPBMC
Experimental: as §1, §2, §3, §4, §5, §6, §7

T3 sequence (Q9UKS7 whole entry): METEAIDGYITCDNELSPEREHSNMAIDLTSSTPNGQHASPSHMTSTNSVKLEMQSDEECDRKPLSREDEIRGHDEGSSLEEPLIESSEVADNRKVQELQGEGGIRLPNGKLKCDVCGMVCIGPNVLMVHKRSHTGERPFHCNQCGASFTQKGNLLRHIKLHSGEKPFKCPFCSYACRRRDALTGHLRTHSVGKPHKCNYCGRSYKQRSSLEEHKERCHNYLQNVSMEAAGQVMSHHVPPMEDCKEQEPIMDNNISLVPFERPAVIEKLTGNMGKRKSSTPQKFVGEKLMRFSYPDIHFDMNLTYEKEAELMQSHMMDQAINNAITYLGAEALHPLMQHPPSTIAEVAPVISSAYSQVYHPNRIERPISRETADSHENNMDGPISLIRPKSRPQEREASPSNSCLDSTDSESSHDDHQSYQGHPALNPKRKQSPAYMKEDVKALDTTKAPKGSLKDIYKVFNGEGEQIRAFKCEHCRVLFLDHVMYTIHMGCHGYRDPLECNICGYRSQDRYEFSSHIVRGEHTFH
T3 sequence (Q96SW2 whole entry): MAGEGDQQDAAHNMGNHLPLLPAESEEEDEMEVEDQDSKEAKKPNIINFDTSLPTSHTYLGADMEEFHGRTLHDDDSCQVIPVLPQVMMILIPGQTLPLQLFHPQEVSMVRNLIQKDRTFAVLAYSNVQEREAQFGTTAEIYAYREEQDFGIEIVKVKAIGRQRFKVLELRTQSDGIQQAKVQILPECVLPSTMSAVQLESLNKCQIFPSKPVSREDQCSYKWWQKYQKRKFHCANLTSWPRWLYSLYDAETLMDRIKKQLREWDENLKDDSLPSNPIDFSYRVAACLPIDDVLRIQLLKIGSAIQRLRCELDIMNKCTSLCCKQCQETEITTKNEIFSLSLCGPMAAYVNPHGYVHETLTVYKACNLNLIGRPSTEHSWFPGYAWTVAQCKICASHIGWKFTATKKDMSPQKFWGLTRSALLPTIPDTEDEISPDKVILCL
T3 sequence (Q16531 whole entry partner): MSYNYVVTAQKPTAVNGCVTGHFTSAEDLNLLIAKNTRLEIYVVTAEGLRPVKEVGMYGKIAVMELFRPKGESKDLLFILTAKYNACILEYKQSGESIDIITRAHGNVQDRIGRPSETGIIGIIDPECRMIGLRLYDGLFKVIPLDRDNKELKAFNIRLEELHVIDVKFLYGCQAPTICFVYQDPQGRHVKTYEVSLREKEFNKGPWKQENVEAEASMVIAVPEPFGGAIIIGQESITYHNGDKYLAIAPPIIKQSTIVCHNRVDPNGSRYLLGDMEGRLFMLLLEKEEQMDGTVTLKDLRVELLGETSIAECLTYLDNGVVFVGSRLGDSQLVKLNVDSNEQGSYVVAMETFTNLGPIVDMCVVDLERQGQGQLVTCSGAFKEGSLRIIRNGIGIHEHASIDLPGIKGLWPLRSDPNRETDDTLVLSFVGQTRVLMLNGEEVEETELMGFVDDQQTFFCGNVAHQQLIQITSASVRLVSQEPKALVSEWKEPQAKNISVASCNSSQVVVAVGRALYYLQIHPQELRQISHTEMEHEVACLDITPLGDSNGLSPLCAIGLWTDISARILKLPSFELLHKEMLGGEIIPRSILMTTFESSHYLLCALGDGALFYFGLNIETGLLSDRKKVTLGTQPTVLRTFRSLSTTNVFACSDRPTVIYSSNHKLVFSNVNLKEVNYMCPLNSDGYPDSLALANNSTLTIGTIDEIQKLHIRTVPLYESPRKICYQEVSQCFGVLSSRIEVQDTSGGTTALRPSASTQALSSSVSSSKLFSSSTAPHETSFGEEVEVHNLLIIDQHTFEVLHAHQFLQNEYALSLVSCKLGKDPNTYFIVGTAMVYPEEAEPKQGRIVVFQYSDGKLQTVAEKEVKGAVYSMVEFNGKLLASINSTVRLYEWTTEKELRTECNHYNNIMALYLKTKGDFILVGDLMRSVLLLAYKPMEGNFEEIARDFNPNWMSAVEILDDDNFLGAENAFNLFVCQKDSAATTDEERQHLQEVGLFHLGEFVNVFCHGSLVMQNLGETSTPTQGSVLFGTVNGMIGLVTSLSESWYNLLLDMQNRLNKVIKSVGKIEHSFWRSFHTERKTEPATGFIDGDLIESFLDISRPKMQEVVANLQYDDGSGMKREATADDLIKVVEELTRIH
T6 sequence (P15170 whole entry): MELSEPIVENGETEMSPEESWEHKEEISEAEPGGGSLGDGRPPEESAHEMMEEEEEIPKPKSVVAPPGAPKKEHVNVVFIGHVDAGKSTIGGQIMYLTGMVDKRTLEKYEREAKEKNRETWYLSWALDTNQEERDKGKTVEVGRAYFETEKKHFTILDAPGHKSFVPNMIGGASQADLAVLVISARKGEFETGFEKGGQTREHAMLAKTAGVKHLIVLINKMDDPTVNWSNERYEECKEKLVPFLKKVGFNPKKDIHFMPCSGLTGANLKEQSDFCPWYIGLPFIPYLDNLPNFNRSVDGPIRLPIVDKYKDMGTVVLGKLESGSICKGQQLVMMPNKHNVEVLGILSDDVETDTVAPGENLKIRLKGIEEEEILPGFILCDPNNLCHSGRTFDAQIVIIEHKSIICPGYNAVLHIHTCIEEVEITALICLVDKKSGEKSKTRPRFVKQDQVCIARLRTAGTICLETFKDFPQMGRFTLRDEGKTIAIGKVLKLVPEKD
T6 sequence (Q96SW2 whole entry): as the sequence (Q96SW2 whole entry) above
T6 sequence (Q16531 whole entry partner): as the sequence (Q16531 whole entry partner) above
T5 sequence (P48729 whole entry): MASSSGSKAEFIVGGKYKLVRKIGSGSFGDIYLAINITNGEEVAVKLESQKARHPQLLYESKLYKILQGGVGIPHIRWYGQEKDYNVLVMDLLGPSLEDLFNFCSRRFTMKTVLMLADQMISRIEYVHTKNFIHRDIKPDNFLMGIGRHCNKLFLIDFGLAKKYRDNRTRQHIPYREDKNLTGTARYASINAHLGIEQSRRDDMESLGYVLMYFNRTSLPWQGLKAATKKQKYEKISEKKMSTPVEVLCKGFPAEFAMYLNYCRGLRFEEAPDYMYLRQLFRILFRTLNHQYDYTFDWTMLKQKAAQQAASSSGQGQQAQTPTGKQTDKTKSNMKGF
T5 sequence (Q96SW2 whole entry): as the sequence (Q96SW2 whole entry) above
T5 sequence (Q16531 whole entry partner): as the sequence (Q16531 whole entry partner) above
T1 sequence (P30291 whole entry): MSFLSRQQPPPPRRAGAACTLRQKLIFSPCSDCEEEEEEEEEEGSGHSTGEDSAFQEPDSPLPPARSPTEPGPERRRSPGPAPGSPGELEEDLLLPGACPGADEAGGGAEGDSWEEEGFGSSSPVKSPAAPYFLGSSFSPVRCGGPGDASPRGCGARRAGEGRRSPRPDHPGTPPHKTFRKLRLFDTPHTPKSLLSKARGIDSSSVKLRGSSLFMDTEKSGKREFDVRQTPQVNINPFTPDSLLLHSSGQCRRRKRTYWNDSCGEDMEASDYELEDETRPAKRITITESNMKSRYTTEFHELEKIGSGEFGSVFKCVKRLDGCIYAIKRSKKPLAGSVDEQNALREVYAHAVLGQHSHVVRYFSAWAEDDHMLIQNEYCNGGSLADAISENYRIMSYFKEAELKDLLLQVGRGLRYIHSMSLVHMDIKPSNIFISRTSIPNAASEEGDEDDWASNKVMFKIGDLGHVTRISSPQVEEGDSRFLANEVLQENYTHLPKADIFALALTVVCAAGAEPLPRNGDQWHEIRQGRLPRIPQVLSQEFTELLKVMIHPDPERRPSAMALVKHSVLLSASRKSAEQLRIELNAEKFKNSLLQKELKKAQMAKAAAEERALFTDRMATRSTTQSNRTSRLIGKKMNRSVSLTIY
T1 sequence (Q96SW2 whole entry): as the sequence (Q96SW2 whole entry) above
T1 sequence (Q16531 whole entry partner): as the sequence (Q16531 whole entry partner) above
T4 sequence (Q9UKT9 whole entry): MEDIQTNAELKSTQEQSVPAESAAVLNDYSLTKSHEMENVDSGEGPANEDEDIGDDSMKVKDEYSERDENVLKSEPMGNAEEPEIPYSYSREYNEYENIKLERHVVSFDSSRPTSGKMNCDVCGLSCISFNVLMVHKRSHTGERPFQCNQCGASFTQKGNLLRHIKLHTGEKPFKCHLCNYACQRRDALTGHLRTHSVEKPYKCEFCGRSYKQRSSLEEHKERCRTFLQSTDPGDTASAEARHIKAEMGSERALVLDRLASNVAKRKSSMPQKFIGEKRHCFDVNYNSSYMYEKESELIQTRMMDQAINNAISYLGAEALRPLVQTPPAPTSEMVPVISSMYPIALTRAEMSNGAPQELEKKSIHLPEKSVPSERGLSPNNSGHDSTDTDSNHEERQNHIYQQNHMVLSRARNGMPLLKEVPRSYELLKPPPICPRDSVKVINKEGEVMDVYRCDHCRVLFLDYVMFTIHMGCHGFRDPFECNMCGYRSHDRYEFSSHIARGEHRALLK
T4 sequence (Q96SW2 whole entry): as the sequence (Q96SW2 whole entry) above
T4 sequence (Q16531 whole entry partner): as the sequence (Q16531 whole entry partner) above

Row | SMILES | Degradation of substrate protein WEE1 (substrate protein remaining %) (WEE1) | Degradation of substrate protein IKZF1 (substrate protein remaining %) (IKZF1) | Degradation of substrate protein IKZF2 (substrate protein remaining %) (IKZF2) | Degradation of substrate protein IKZF3 (substrate protein remaining %) (IKZF3) | Degradation of substrate protein CK1a (substrate protein remaining %) (CK1a) | Degradation of substrate protein GSPT1 (substrate protein remaining %) (GSPT1)
1 | O=Cc1cncc(NC2CCC(=O)NC2=O)c1 (stereo not drawn) [GT-07554, 5-((2,6-dioxopiperidin-3-yl)amino)nicotinaldehyde] | A (A is defined as 0% ≤ substrate protein remaining % ≤ 80%) | A (A is defined as 0% ≤ substrate protein remaining % ≤ 80%) | A (A is defined as 0% ≤ substrate protein remaining % ≤ 80%) | A (A is defined as 0% ≤ substrate protein remaining % ≤ 80%) | A (A is defined as 0% ≤ substrate protein remaining % ≤ 80%) | B (B is defined as substrate protein remaining % > 80%)
2 | O=C1CCC(Nc2ncncc2CO)C(=O)N1 (stereo not drawn) [GT-07727, 3-((5-(hydroxymethyl)pyrimidin-4-yl)amino)piperidine-2,6-dione] | A (A is defined as 0% ≤ substrate protein remaining % ≤ 80%) | A (A is defined as 0% ≤ substrate protein remaining % ≤ 80%) | A (A is defined as 0% ≤ substrate protein remaining % ≤ 80%) | A (A is defined as 0% ≤ substrate protein remaining % ≤ 80%) | B (B is defined as substrate protein remaining % > 80%) | B (B is defined as substrate protein remaining % > 80%)
3 | O=C1CCN(c2cnc(F)c(CO)c2)C(=O)N1 [GT-07556, 1-(6-fluoro-5-(hydroxymethyl)pyridin-3-yl)dihydropyrimidine-2,4(1H,3H)-dione] | A (A is defined as 0% ≤ substrate protein remaining % ≤ 80%) | A (A is defined as 0% ≤ substrate protein remaining % ≤ 80%) | B (B is defined as substrate protein remaining % > 80%) | A (A is defined as 0% ≤ substrate protein remaining % ≤ 80%) | A (A is defined as 0% ≤ substrate protein remaining % ≤ 80%) | B (B is defined as substrate protein remaining % > 80%)
4 | O=C1CCN(c2cc(CCl)c(F)cn2)C(=O)N1 [GT-07199, 1-(4-(chloromethyl)-5-fluoropyridin-2-yl)dihydropyrimidine-2,4(1H,3H)-dione] | B (B is defined as substrate protein remaining % > 80%) | B (B is defined as substrate protein remaining % > 80%) | A (A is defined as 0% ≤ substrate protein remaining % ≤ 80%) | A (A is defined as 0% ≤ substrate protein remaining % ≤ 80%) | A (A is defined as 0% ≤ substrate protein remaining % ≤ 80%) | A (A is defined as 0% ≤ substrate protein remaining % ≤ 80%)
5 | O=C1CCN(c2cncc(CCl)n2)C(=O)N1 [GT-07728, 1-(6-(chloromethyl)pyrazin-2-yl)dihydropyrimidine-2,4(1H,3H)-dione] | A (A is defined as 0% ≤ substrate protein remaining % ≤ 80%) | A (A is defined as 0% ≤ substrate protein remaining % ≤ 80%) | A (A is defined as 0% ≤ substrate protein remaining % ≤ 80%) | A (A is defined as 0% ≤ substrate protein remaining % ≤ 80%) | B (B is defined as substrate protein remaining % > 80%) | B (B is defined as substrate protein remaining % > 80%)
6 | NCc1ccnc(N2CCC(=O)NC2=O)c1 [GT-07198, 1-(4-(aminomethyl)pyridin-2-yl)dihydropyrimidine-2,4(1H,3H)-dione] | B (B is defined as substrate protein remaining % > 80%) | B (B is defined as substrate protein remaining % > 80%) | B (B is defined as substrate protein remaining % > 80%) | A (A is defined as 0% ≤ substrate protein remaining % ≤ 80%) | B (B is defined as substrate protein remaining % > 80%) | B (B is defined as substrate protein remaining % > 80%)
7 | CC(C)(C)[Si](C)(C)OCc1ccc(NC2CCC(=O)NC2=O)cn1 (stereo not drawn) [GT-07445, 3-((6-(((tert-butyldimethylsilyl)oxy)methyl)pyridin-3-yl)amino)piperidine-2,6-dione] | A (A is defined as 0% ≤ substrate protein remaining % ≤ 80%) | A (A is defined as 0% ≤ substrate protein remaining % ≤ 80%) | B (B is defined as substrate protein remaining % > 80%) | B (B is defined as substrate protein remaining % > 80%) | A (A is defined as 0% ≤ substrate protein remaining % ≤ 80%) | A (A is defined as 0% ≤ substrate protein remaining % ≤ 80%)
8 | O=C1CCC(Nc2cc(CO)c(F)cn2)C(=O)N1 (stereo not drawn) [GT-07725, 3-((5-fluoro-4-(hydroxymethyl)pyridin-2-yl)amino)piperidine-2,6-dione] | A (A is defined as 0% ≤ substrate protein remaining % ≤ 80%) | A (A is defined as 0% ≤ substrate protein remaining % ≤ 80%) | A (A is defined as 0% ≤ substrate protein remaining % ≤ 80%) | A (A is defined as 0% ≤ substrate protein remaining % ≤ 80%) | B (B is defined as substrate protein remaining % > 80%) | A (A is defined as 0% ≤ substrate protein remaining % ≤ 80%)
9 | O=Cc1ccnc(NC2CCC(=O)NC2=O)c1 (stereo not drawn) [GT-07553, 2-((2,6-dioxopiperidin-3-yl)amino)isonicotinaldehyde] | A (A is defined as 0% ≤ substrate protein remaining % ≤ 80%) | A (A is defined as 0% ≤ substrate protein remaining % ≤ 80%) | A (A is defined as 0% ≤ substrate protein remaining % ≤ 80%) | B (B is defined as substrate protein remaining % > 80%) | B (B is defined as substrate protein remaining % > 80%) | B (B is defined as substrate protein remaining % > 80%)
10 | O=C1CCC(Nc2ccc(CO)cn2)C(=O)N1 (stereo not drawn) [GT-07551, 3-((5-(hydroxymethyl)pyridin-2-yl)amino)piperidine-2,6-dione] | A (A is defined as 0% ≤ substrate protein remaining % ≤ 80%) | B (B is defined as substrate protein remaining % > 80%) | A (A is defined as 0% ≤ substrate protein remaining % ≤ 80%) | B (B is defined as substrate protein remaining % > 80%) | B (B is defined as substrate protein remaining % > 80%) | B (B is defined as substrate protein remaining % > 80%)
11 | O=C1CCC(c2cnc(CO)c(F)c2)C(=O)N1 (stereo not drawn) [GT-07049, 3-(5-fluoro-6-(hydroxymethyl)pyridin-3-yl)piperidine-2,6-dione] | B (B is defined as substrate protein remaining % > 80%) | B (B is defined as substrate protein remaining % > 80%) | A (A is defined as 0% ≤ substrate protein remaining % ≤ 80%) | A (A is defined as 0% ≤ substrate protein remaining % ≤ 80%) | A (A is defined as 0% ≤ substrate protein remaining % ≤ 80%) | A (A is defined as 0% ≤ substrate protein remaining % ≤ 80%)
